Results published in paper PMC6539495, “Anti-Cancer Activity of Novel Dihydrotestosterone-Derived Ring A-Condensed Pyrazoles on Androgen Non-Responsive Prostate Cancer Cell Lines” (International Journal of Molecular Sciences, 2019).

Tests used:
MRC-5 cells = assay: MTT cell viability assay on non-cancerous MRC-5 fibroblasts; assay type: cell-based; conditions: 72 hours, MTT
Procedure: (§1) HeLa, MCF-7 and MDA-MB-231 cells were obtained from Sigma-Aldrich and maintained as reported previously. MRC-5, PC-3, DU 145 cells were purchased from American Type Culture Collection (ATCC, Manassas, VA, USA). PC-3 and DU 145 were maintained in RPMI medium (Sigma-Aldrich) whereas MRC-5 cells were maintained in DMEM medium (Sigma-Aldrich). All media were complemented with 10% Fetal bovine serum (FBS, Sigma-Aldrich) 2 mM L-glutamine, 0.01% streptomycin and 0.005% ampicillin (Sigma-Aldrich). Cells were cultured under standard conditions in a 37 °C incubator containing 5% CO2 in 95% humidity.
(§2) Each test compound was dissolved in cell culture grade DMSO (Molar Chemicals, Halásztelek, Hungary) in a final concentration of […]. Antiproliferative action of the synthesized steroids was investigated by MTT assay. An amount of 5000 cells/well were seeded into 96 well plates. Twenty-four hours post seeding, all cell lines were treated with each compound in 10 and 30 μM concentrations for 72 hours. […] After 72 hours, cells were washed with PBS and incubated with culture medium containing 0.5 mg/mL MTT (3-(4, 5-dimethylthiazolyl-2)-2,5-diphenyltetrazolium bromide) reagent (SERVA, GmbH, Heidelberg, Germany) for an hour at 37 °C. Formazan crystals were solubilized in DMSO and extinction was measured at 570 nm using a Synergy HTX plate reader (BioTech-Hungary, Budapest, Hungary). MTT assays were performed at least three times using four independent biological replicates. Data were normalized to solvent controls and the graphical representation of the obtained data as well as the calculation of IC50 values were carried out by GraphPad Prism 7 software (GraphPad Software; San Diego, CA, USA).

DU 145 cells = assay: MTT cell viability assay on DU 145 prostate cancer cells; assay type: cell-based, human; conditions: 72 hours
Procedure: as §1, §2

PC-3 cells = assay: MTT cell viability assay on PC-3 prostate cancer cells; assay type: cell-based, human; conditions: for Mean values (%) of primary growth inhibitory screen (viability in %), PC-3: 72 hours, MTT
Procedure: as §1, §2

HeLa cells = assay: MTT cell viability assay on HeLa cervical cancer cells; assay type: cell-based, human; conditions: 72 hours
Procedure: as §1, §2

MCF-7 cells = assay: MTT cell viability assay on MCF-7 breast cancer cells; assay type: cell-based, human; conditions: 72 hours
Procedure: as §1, §2

MDA-MB-231 cells = assay: MTT cell viability assay on MDA-MB-231 breast cancer cells; assay type: cell-based, human; conditions: 72 hours
Procedure: as §1, §2

| SMILES | Mean values (%) of primary growth inhibitory screen (viability in %), MRC-5 (MRC-5 cells; 10 µM) [%] | Mean values (%) of primary growth inhibitory screen (viability in %), MRC-5 (MRC-5 cells; 30 µM) [%] | Mean values (%) of primary growth inhibitory screen (viability in %), DU 145 (DU 145 cells; 10 µM) [%] | Mean values (%) of primary growth inhibitory screen (viability in %), DU 145 (DU 145 cells; 30 µM) [%] | Mean values (%) of primary growth inhibitory screen (viability in %), PC-3 (PC-3 cells; 10 µM) [%] | antiproliferative potency against PC-3 prostate cancer cells compared to MRC-5 non-cancerous fibroblasts (PC-3 cells; 10 µM, primary screen) | Mean values (%) of primary growth inhibitory screen (viability in %), PC-3 (PC-3 cells; 30 µM) [%] | Mean values (%) of primary growth inhibitory screen (viability in %), HeLa (HeLa cells; 10 µM) [%] | Mean values (%) of primary growth inhibitory screen (viability in %), HeLa (HeLa cells; 30 µM) [%] | Mean values (%) of primary growth inhibitory screen (viability in %), MCF-7 (MCF-7 cells; 10 µM) [%] | Mean values (%) of primary growth inhibitory screen (viability in %), MCF-7 (MCF-7 cells; 30 µM) [%] | Mean values (%) of primary growth inhibitory screen (viability in %), MDA-MB-231 (MDA-MB-231 cells; 10 µM) [%] | Mean values (%) of primary growth inhibitory screen (viability in %), MDA-MB-231 (MDA-MB-231 cells; 30 µM) [%] |
| --- | --- | --- | --- | --- | --- | --- | --- | --- | --- | --- | --- | --- | --- |
| Cc1ccc(-n2nc3c(c2C)CC2(C)C(CCC4C5CCC(O)C5(C)CCC42)C3)cc1 (stereo not drawn) [4c, 17β-Hydroxy-1′-(4″-tolyl)-5′-methylpyrazolo[3′,4′:3,2]-5α-androstane] | 75.0 | 37.5 | 87.3 | 5.1 | 44.0 | significantly higher | 4.2 | 56.1 | 8.0 | 49.5 | 5.4 | 81.7 | 12.0 |
| Cc1c2c(nn1-c1ccc(F)cc1)CC1CCC3C4CCC(O)C4(C)CCC3C1(C)C2 (stereo not drawn) [4f, 17β-Hydroxy-1′-(4″-fluorophenyl)-5′-methylpyrazolo[3′,4′:3,2]-5α-androstane] | 68.7 | 14.8 | 71.6 | 3.9 | 41.8 | – | 5.1 | 46.1 | 7.6 | 57.1 | 5.4 | 83.4 | 32.0 |
| Cc1ccc(-n2nc3c(c2C)CC2(C)C(CCC4C5CCC(=O)C5(C)CCC42)C3)cc1 (stereo not drawn) [5c, 1′-(4″-Tolyl)-5′-methylpyrazolo[3′,4′:3,2]-5α-androst-17-one] | 89.1 | 62.5 | 86.3 | 51.1 | 68.1 | – | 43.6 | 46.3 | 38.5 | 63.6 | 48.7 | 78.7 | 66.2 |
